Laboratory results reported in patent US8344180B2, “Hydrazine amide derivative” (Shionogi & Co., Ltd., priority 2006, dated 2013).

These molecules were tested against T1, human NPY Y5 receptor (Homo sapiens, UniProt Q15761) (assay: Affinity for NPY Y5 receptor ([125I] peptide YY binding to CHO cell membranes)). Conditions: membranes from CHO cells expressing NPY Y5 receptor; [125I] peptide YY 60 pM; 25° C., 2 hours; read-out: 50% inhibitory concentration of the test-compound against the specific peptide YY binding (IC50 value).
T1 construct: expressed in transfected cells; membranes used
T1 sequence (Q15761 1-445): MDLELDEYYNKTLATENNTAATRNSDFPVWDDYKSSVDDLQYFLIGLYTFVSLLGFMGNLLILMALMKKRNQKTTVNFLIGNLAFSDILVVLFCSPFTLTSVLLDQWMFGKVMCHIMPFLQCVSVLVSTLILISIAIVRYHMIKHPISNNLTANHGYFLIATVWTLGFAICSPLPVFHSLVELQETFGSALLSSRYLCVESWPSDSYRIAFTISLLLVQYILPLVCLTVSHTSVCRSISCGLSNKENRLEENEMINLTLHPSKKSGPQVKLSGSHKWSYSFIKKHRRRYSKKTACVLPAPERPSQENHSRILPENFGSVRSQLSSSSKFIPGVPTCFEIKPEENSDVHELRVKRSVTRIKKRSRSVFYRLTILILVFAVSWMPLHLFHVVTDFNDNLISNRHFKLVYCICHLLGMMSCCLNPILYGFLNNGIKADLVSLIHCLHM
Description: Experiment 1: Affinity for NPY Y5 Receptor
cDNA sequence encoding a human NPY Y5 receptor (WO96/16542) was cloned in a vector pME18S (Takebe et al. Mol. Cell. Biol. 8, 8957). The obtained expression vector was transfected into CHO cells as a host by using Lipofect AMINE reagent (Trademark, Gibco BRL Co., Ltd.) according to the instruction manual. The cells that stably express NPY Y5 receptor were obtained.
The membranes prepared from the CHO cells expressing NPY Y5 receptor, the compound of the present invention and 30,000 cpm [^125I] peptide YY (60 pM of final concentration: Amersham) were incubated in the assay buffer (20 mM HEPES-Hanks buffer containing 0.1% bovine serum albumin, pH 7.4) at 25° C. for 2 hours, and then the membrane was filtered from the mixture through a glassfilter (GF/C) presoaked with 1% polyethyleneimine. After washing with 50 mM Tris-HCl buffer (pH 7.4), radioactivity retained on the filters was quantified with a gamma counter. Nonspecific binding was defined as the amount of radioactivity bound to the membranes after incubation in the presence of 200 nM of peptide YY. The 50% inhibitory concentration of the test-compound against the specific peptide YY binding (IC50 value) was calculated (Inui, A. et al. Endocrinology 131, 2090-2096 (1992)).
In the case of `CC(C)(C)S(=O)(=O)N[C@H]1CC[C@H](C(=O)NNc2cccc3ccccc23)CC1` [Example I-17], the IC50 is reported as 0.88 nM. In the case of `CC(C)S(=O)(=O)N[C@H]1CC[C@H](C(=O)NNc2ccc(Cl)c(Cl)c2)CC1` [Example I-8], the IC50 is reported as 1.1 nM. Molecule `CC(C)(C)S(=O)(=O)N[C@H]1CC[C@H](C(=O)NNc2ccc(Cl)c(Cl)c2)CC1` [Example I-4] has an IC50 of 2.3 nM. Work on `CC(C)(C)S(=O)(=O)N[C@H]1CC[C@H](C(=O)NNc2cccc(-c3ccccc3)c2)CC1` [Example I-23] yielded an IC50 of 1.12 nM.
